# According to PubChem BioAssay (NCI):
#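 Interpolation was linear, between the two tested concentrations surrounding the appropriate level; five concentrations were tested over 48 hours in 96-well plates. TGI: concentration producing complete growth inhibition.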
# What was measured:
# Assay in all cases: NCI-60 cell line screen, 48 h
# NCI/ADR-RES ovarian = test system: NCI/ADR-RES ovarian
# MDA-N = test system: MDA-N
# SK-OV-3 ovarian = test system: SK-OV-3 ovarian
# NCI-H226 lung = test system: NCI-H226 lung
# TK-10 renal = test system: TK-10 renal
# IGROV1 ovarian = test system: IGROV1 ovarian
# SK-MEL-5 melanoma = test system: SK-MEL-5 melanoma
# EKVX NSCLC = test system: EKVX NSCLC
# NCI-H522 lung = test system: NCI-H522 lung
# HCT-15 colon = test system: HCT-15 colon
# MCF7 breast = test system: MCF7 breast
# M14 melanoma = test system: M14 melanoma
# MDA-MB-231 breast = test system: MDA-MB-231 breast
# SNB-19 CNS = test system: SNB-19 CNS
# NCI-H23 lung = test system: NCI-H23 lung
# SF-295 CNS = test system: SF-295 CNS
# NCI-H460 lung = test system: NCI-H460 lung
# CAKI-1 renal = test system: CAKI-1 renal
# HOP-62 NSCLC = test system: HOP-62 NSCLC
# KM12 colon = test system: KM12 colon
# LOX IMVI melanoma = test system: LOX IMVI melanoma
# RXF 393 renal = test system: RXF 393 renal
# OVCAR-5 ovarian = test system: OVCAR-5 ovarian
# UO-31 renal = test system: UO-31 renal
# BT-549 breast = test system: BT-549 breast
# 786-0 renal = test system: 786-0 renal
# UACC-257 melanoma = test system: UACC-257 melanoma
# SF-268 CNS = test system: SF-268 CNS
# COLO 205 colon = test system: COLO 205 colon
# MALME-3M melanoma = test system: MALME-3M melanoma
# HS 578T breast = test system: HS 578T breast
# ACHN renal = test system: ACHN renal
# PC-3 prostate = test system: PC-3 prostate
# SF-539 CNS = test system: SF-539 CNS
# A549 NSCLC = test system: A549 NSCLC
# OVCAR-3 ovarian = test system: OVCAR-3 ovarian
# DU-145 prostate = test system: DU-145 prostate
# HCC-2998 colon = test system: HCC-2998 colon
# HCT-116 colon = test system: HCT-116 colon
# UACC-62 melanoma = test system: UACC-62 melanoma
# SW-620 colon = test system: SW-620 colon
# A498 renal = test system: A498 renal
# HOP-92 NSCLC = test system: HOP-92 NSCLC
# U251 CNS = test system: U251 CNS
# CCRF-CEM leukemia = test system: CCRF-CEM leukemia
# OVCAR-8 ovarian = test system: OVCAR-8 ovarian
# RPMI-8226 leukemia = test system: RPMI-8226 leukemia
# SN12C renal = test system: SN12C renal
# SK-MEL-2 melanoma = test system: SK-MEL-2 melanoma
# HT29 colon = test system: HT29 colon
# HL-60(TB) leukemia = test system: HL-60(TB) leukemia
# SNB-75 CNS = test system: SNB-75 CNS
# K-562 leukemia = test system: K-562 leukemia
# MDA-MB-435 = test system: MDA-MB-435
# OVCAR-4 ovarian = test system: OVCAR-4 ovarian
# T-47D breast = test system: T-47D breast
# MOLT-4 leukemia = test system: MOLT-4 leukemia
# SK-MEL-28 melanoma = test system: SK-MEL-28 melanoma
smiles,measurement,setting,value
NC(N)=NCCC(O)(P(=O)(O)O)P(=O)(O)O,TGI,NCI/ADR-RES ovarian,> 100 µM
same,TGI,MDA-N,> 100 µM
same,TGI,SK-OV-3 ovarian,> 100 µM
same,TGI,NCI-H226 lung,> 100 µM
same,TGI,TK-10 renal,> 100 µM
same,TGI,IGROV1 ovarian,> 100 µM
same,TGI,SK-MEL-5 melanoma,> 100 µM
same,TGI,EKVX NSCLC,> 100 µM
same,TGI,NCI-H522 lung,> 100 µM
same,TGI,HCT-15 colon,> 100 µM
same,TGI,MCF7 breast,> 100 µM
same,TGI,M14 melanoma,> 100 µM
same,TGI,MDA-MB-231 breast,> 100 µM
same,TGI,SNB-19 CNS,> 100 µM
same,TGI,NCI-H23 lung,> 100 µM
same,TGI,SF-295 CNS,> 100 µM
same,TGI,NCI-H460 lung,> 100 µM
same,TGI,CAKI-1 renal,> 100 µM
same,TGI,HOP-62 NSCLC,> 100 µM
same,TGI,KM12 colon,> 100 µM
same,TGI,LOX IMVI melanoma,> 100 µM
same,TGI,RXF 393 renal,> 100 µM
same,TGI,OVCAR-5 ovarian,> 100 µM
same,TGI,UO-31 renal,> 100 µM
same,TGI,BT-549 breast,> 100 µM
same,TGI,786-0 renal,> 100 µM
same,TGI,UACC-257 melanoma,> 100 µM
same,TGI,SF-268 CNS,> 100 µM
same,TGI,COLO 205 colon,> 100 µM
same,TGI,MALME-3M melanoma,> 100 µM
same,TGI,HS 578T breast,57.4 µM
same,TGI,ACHN renal,> 100 µM
same,TGI,PC-3 prostate,> 100 µM
same,TGI,SF-539 CNS,> 100 µM
same,TGI,A549 NSCLC,> 100 µM
same,TGI,OVCAR-3 ovarian,> 100 µM
same,TGI,DU-145 prostate,> 100 µM
same,TGI,HCC-2998 colon,> 100 µM
same,TGI,HCT-116 colon,> 100 µM
same,TGI,UACC-62 melanoma,> 100 µM
COc1cc2c3c([nH]c2c(OC)c1OC)CCN(Cc1ccccc1)C3,TGI,NCI/ADR-RES ovarian,> 100 µM
same,TGI,MDA-N,33.9 µM
same,TGI,SW-620 colon,> 100 µM
same,TGI,A498 renal,72.3 µM
same,TGI,NCI-H226 lung,> 100 µM
same,TGI,TK-10 renal,78.9 µM
same,TGI,IGROV1 ovarian,> 100 µM
same,TGI,SK-MEL-5 melanoma,34.9 µM
same,TGI,EKVX NSCLC,> 100 µM
same,TGI,HOP-92 NSCLC,41.5 µM
same,TGI,NCI-H522 lung,> 100 µM
same,TGI,HCT-15 colon,> 100 µM
same,TGI,U251 CNS,87.4 µM
same,TGI,MCF7 breast,41.8 µM
same,TGI,M14 melanoma,30 µM
same,TGI,CCRF-CEM leukemia,> 100 µM
same,TGI,MDA-MB-231 breast,> 100 µM
same,TGI,SNB-19 CNS,> 100 µM
same,TGI,OVCAR-8 ovarian,> 100 µM
same,TGI,NCI-H23 lung,> 100 µM
same,TGI,SF-295 CNS,> 100 µM
same,TGI,NCI-H460 lung,63.5 µM
same,TGI,CAKI-1 renal,> 100 µM
same,TGI,HOP-62 NSCLC,> 100 µM
same,TGI,KM12 colon,> 100 µM
same,TGI,RPMI-8226 leukemia,52.5 µM
same,TGI,LOX IMVI melanoma,32.1 µM
same,TGI,RXF 393 renal,> 100 µM
same,TGI,OVCAR-5 ovarian,> 100 µM
same,TGI,SN12C renal,> 100 µM
same,TGI,SK-MEL-2 melanoma,47.1 µM
same,TGI,786-0 renal,> 100 µM
same,TGI,UACC-257 melanoma,40 µM
same,TGI,SF-268 CNS,> 100 µM
same,TGI,COLO 205 colon,32 µM
same,TGI,HT29 colon,49.9 µM
same,TGI,MALME-3M melanoma,38.1 µM
same,TGI,HL-60(TB) leukemia,> 100 µM
same,TGI,HS 578T breast,> 100 µM
same,TGI,ACHN renal,> 100 µM
same,TGI,SNB-75 CNS,> 100 µM
same,TGI,PC-3 prostate,> 100 µM
same,TGI,K-562 leukemia,84.2 µM
same,TGI,MDA-MB-435,35 µM
same,TGI,SF-539 CNS,38.5 µM
same,TGI,OVCAR-4 ovarian,> 100 µM
same,TGI,A549 NSCLC,> 100 µM
same,TGI,T-47D breast,68.6 µM
same,TGI,MOLT-4 leukemia,> 100 µM
same,TGI,SK-MEL-28 melanoma,50.5 µM
same,TGI,OVCAR-3 ovarian,> 100 µM
same,TGI,DU-145 prostate,> 100 µM
same,TGI,HCC-2998 colon,34.6 µM
same,TGI,HCT-116 colon,> 100 µM
same,TGI,UACC-62 melanoma,> 100 µM
